Measurements from ChEMBL document CHEMBL1134821, “Synthesis and anti-HIV activity of oleanolic acid derivatives” (Bioorg Med Chem Lett, 2001).
Converted amounts (≈) assume the structure as drawn. Each block holds one compound with its values, some of them ahead of it.

How the values were obtained:
H9 [1] = assay: Antiviral activity against HIV-1(IIIB) infected H9 cell lines.; assay type: functional, cell-based; conditions: Homo sapiens
[2] = Therapeutic index was determined; conditions: for selectivity ratio: read-out: TI
H9 [3] = assay: Concentration which was toxic to 50% of the mock-infected H9 lymphocyte.; assay type: functional, cell-based; conditions: Homo sapiens

SMILES: CC1(C)CC[C@]2(C(=O)O)CC[C@]3(C)[C@H](CC[C@@H]4[C@@]5(C)CC[C@H](O)C(C)(C)[C@@H]5CC[C@]43C)[C@@H]2C1
EC50 (H9 [1]): 0.5 µg/mL (≈ 1.09 µM)
selectivity ratio [2]: 34.8
IC50 (H9 [3]): 17.4 µg/mL (≈ 37.9 µM)

SMILES: CC1(C)CC[C@]2(C(=O)O)CC[C@]3(C)C(=CC[C@@H]4[C@@]5(C)CC[C@H](O)C(C)(C)[C@@H]5CC[C@]43C)[C@@H]2C1 [OLEANOLIC_ACID]
EC50 (H9 [1]): 1.7 µg/mL (≈ 3.72 µM)
TI [2]: 12.8
IC50 (H9 [3]): 21.8 µg/mL (≈ 47.7 µM)

SMILES: CC(C)(CC(=O)O)CC(=O)NC[C@]12CCC(C)(C)C[C@H]1C1=CC[C@@H]3[C@@]4(C)CC[C@H](OC(=O)CC(C)(C)CC(=O)O)C(C)(C)[C@@H]4CC[C@@]3(C)[C@]1(C)CC2
EC50 (H9 [1]): 0.1 µg/mL (≈ 0.138 µM)
selectivity ratio [2]: 212
IC50 (H9 [3]): 21.2 µg/mL (≈ 29.2 µM)

SMILES: CC1(C)CC[C@]2(C(=O)O)CC[C@]3(C)[C@H](CC[C@@H]4[C@@]5(C)CC[C@H](OC(=O)CC6(CC(=O)O)CCCC6)C(C)(C)[C@@H]5CC[C@]43C)[C@@H]2C1
EC50 (H9 [1]): 0.1 µg/mL (≈ 0.16 µM)
selectivity ratio [2]: 101
IC50 (H9 [3]): 10.1 µg/mL (≈ 16.1 µM)

SMILES: CC1(C)CC[C@]2(C(=O)O)CC[C@]3(C)[C@H](CC[C@@H]4[C@@]5(C)CC[C@H](OC(=O)CC(C)(C)C(=O)O)C(C)(C)[C@@H]5CC[C@]43C)[C@@H]2C1
EC50 (H9 [1]): 0.0039 µg/mL (≈ 0.00665 µM)
selectivity ratio [2]: 3570
IC50 (H9 [3]): 13.7 µg/mL (≈ 23.3 µM)

SMILES: CC(CC(=O)O)CC(=O)O[C@H]1CC[C@]2(C)[C@H]3CC[C@@H]4[C@@H]5CC(C)(C)CC[C@]5(C(=O)O)CC[C@@]4(C)[C@]3(C)CC[C@H]2C1(C)C (stereo partly specified)
EC50 (H9 [1]): 0.1 µg/mL (≈ 0.17 µM)
selectivity ratio [2]: 123
IC50 (H9 [3]): 12.3 µg/mL (≈ 21 µM)

SMILES: CC1(C)CC[C@]2(C(=O)O)CC[C@]3(C)C(=CC[C@@H]4[C@@]5(C)CC[C@H](OC(=O)CC6(CC(=O)O)CCCC6)C(C)(C)[C@@H]5CC[C@]43C)[C@@H]2C1
EC50 (H9 [1]): 1.2 µg/mL (≈ 1.92 µM)
IC50 (H9 [3]): 4.7 µg/mL (≈ 7.52 µM)

SMILES: CC1(C)CC[C@]2(C(=O)O)CC[C@]3(C)[C@H](CC[C@@H]4[C@@]5(C)CC[C@H](OC(=O)CCCC(=O)O)C(C)(C)[C@@H]5CC[C@]43C)[C@@H]2C1
EC50 (H9 [1]): 2.6 µg/mL (≈ 4.54 µM)
selectivity ratio [2]: 4.9
IC50 (H9 [3]): 12.9 µg/mL (≈ 22.5 µM)

SMILES: CC1(C)CC[C@]2(CNC(=O)CC3(CC(=O)O)CCCC3)CC[C@]3(C)C(=CC[C@@H]4[C@@]5(C)CC[C@H](OC(=O)CC6(CC(=O)O)CCCC6)C(C)(C)[C@@H]5CC[C@]43C)[C@@H]2C1
EC50 (H9 [1]): 0.1 µg/mL (≈ 0.129 µM)
selectivity ratio [2]: 195
IC50 (H9 [3]): 19.5 µg/mL (≈ 25.1 µM)

Further lines, with some results ahead:

EC50 (H9 [1]): 8.3 µg/mL (≈ 14.2 µM)
SMILES: CC(CC(=O)O)CC(=O)O[C@H]1CC[C@]2(C)[C@H]3CC=C4[C@@H]5CC(C)(C)CC[C@]5(C(=O)O)CC[C@@]4(C)[C@]3(C)CC[C@H]2C1(C)C (stereo partly specified)
selectivity ratio [2]: 3.3
IC50 (H9 [3]): 27.5 µg/mL (≈ 47 µM)

EC50 (H9 [1]): 0.1 µg/mL (≈ 0.166 µM)
SMILES: CC(C)(CC(=O)O)CC(=O)O[C@H]1CC[C@]2(C)[C@H]3CC[C@@H]4[C@@H]5CC(C)(C)CC[C@]5(C(=O)O)CC[C@@]4(C)[C@]3(C)CC[C@H]2C1(C)C
selectivity ratio [2]: 83
IC50 (H9 [3]): 8.3 µg/mL (≈ 13.8 µM)

EC50 (H9 [1]): 1.5 µg/mL (≈ 2.5 µM)
SMILES: CC(C)(CC(=O)O)CC(=O)O[C@H]1CC[C@]2(C)[C@H]3CC=C4[C@@H]5CC(C)(C)CC[C@]5(C(=O)O)CC[C@@]4(C)[C@]3(C)CC[C@H]2C1(C)C
IC50 (H9 [3]): 14.2 µg/mL (≈ 23.7 µM)

EC50 (H9 [1]): 7.1 µg/mL (≈ 12.4 µM)
SMILES: CC1(C)CC[C@]2(C(=O)O)CC[C@]3(C)C(=CC[C@@H]4[C@@]5(C)CC[C@H](OC(=O)CCCC(=O)O)C(C)(C)[C@@H]5CC[C@]43C)[C@@H]2C1
IC50 (H9 [3]): 14.6 µg/mL (≈ 25.6 µM)
